Laboratory results: patent US10526290B2, “Bendamustine derivatives and related compounds, and medical use thereof in cancer therapy” (SYNBIAS PHARMA AG, priority 2012, dated 2020)

SMILES: Cl.Cn1c(CCCC(=O)O)nc2ccc(N(CCCl)CCCl)cc21
- melting point: 174 to 176.5 °C
